Experiments:
LOLMU = experiment: Example III postemergence foliar-applied, greenhouse, weeds common to row crops such as corn and soybeans; assay type: in vivo, Lolium multiflorum Lam.
Excerpt: Seeds or nutlets of the desired test plant species were planted in a soil matrix prepared by mixing a loam or sandy loam soil (e.g., 28.6 percent silt, 18.8 percent clay, and 52.6 percent sand, with a pH of about 5.8 and an organic matter content of about 1.8 percent) and calcareous grit in an 80 to 20 ratio. The soil matrix was contained in plastic pots with a surface area of 84.6 square centimeters (cm^2) and a volume of 560 cubic centimeters (cm^3). When required to ensure good germination and healthy plants, a fungicide treatment and/or other chemical or physical treatment was applied. The plants were grown for 7-31 days (d) in a greenhouse with an approximate 15 hour (h) photoperiod which was maintained at about 23-29° C. during the day and 22-28° C. during the night. Nutrients (Peters Excel® 15-5-15 5-Ca 2-Mg) and water were added on a regular basis and supplemental lighting was provided with overhead metal halide 1000-Watt lamps as necessary. The plants were employed for testing when they reached the first, second, or third true leaf stage.
(§1) Treatment requirements were calculated based upon the rates being tested, the concentration of active ingredient or acid equivalent in the formulation, and a 12 mL application volume at a rate of 187 L/ha.
(§2) Treatments consisted of the acid or esters of 4-amino-3-chloro-5-fluoro-6-(4-chloro-2-fluoro-3-methoxy-phenyl)pyridine-2-carboxylic acid (Compound A), each formulated as an SC (suspension concentrate), and various herbicidal components alone and in combination.
Other herbicidal components were applied on an acid equivalent basis and included acetyl coA carboxylase (ACCase)-inhibiting herbicide (cyclohexanedione and aryloxyphenoxypropionate chemical classes) quizalofop-p-ethyl formulated as Assure® II.
All stock solutions and applications solutions were visually inspected for compound compatibility prior to application. Compound requirements are based upon a 12 mL application volume at a rate of 187 liters per hectare (L/ha). Formulated compounds were applied to the plant material with an overhead Mandel track sprayer equipped with 8002E nozzles calibrated to deliver 187 L/ha over an application area of 0.503 square meters (m^2) at a spray height of 18 to 20 inches (46 to 50 cm) above the average plant canopy height. Control plants were sprayed in the same manner with the solvent blank.
(§3) The treated plants and control plants were placed in a greenhouse as described above and watered by sub-irrigation to prevent wash-off of the test compounds. After approximately 2 weeks, the condition of the test plants as compared with that of the untreated plants was determined visually and scored on a scale of 0 to 100 percent where 0 corresponds to no injury or growth inhibition and 100 corresponds to complete kill.
(§4) Colby's equation was used to determine the herbicidal effects expected from the mixtures (Colby, S. R. 1967. Calculation of the synergistic and antagonistic response of herbicide combinations. Weeds 15:20-22.).
The following equation was used to calculate the expected activity of mixtures containing two active ingredients, A and B: Expected=A+B−(A×B/100)

ECHCO = experiment: Example I postemergence foliar-applied, greenhouse, direct seeded rice weeds; assay type: in vivo, Echinochloa colona (L.) Link
Excerpt: Seeds or nutlets of the desired test plant species were planted in a soil matrix prepared by mixing a loam or sandy loam soil (e.g., 28.6 percent silt, 18.8 percent clay, and 52.6 percent sand, with a pH of about 5.8 and an organic matter content of about 1.8 percent) and calcareous grit in an 80 to 20 ratio. The soil matrix was contained in plastic pots with a volume of 1 quart and a surface area of 83.6 square centimeters (cm^2). When required to ensure good germination and healthy plants, a fungicide treatment and/or other chemical or physical treatment was applied. The plants were grown for 8-22 days in a greenhouse with an approximate 14 hr. photoperiod which was maintained at about 29° C. during the day and 26° C. during the night. Nutrients (Peters Excel® 15-5-15 5-Ca 2-Mg and iron chelate) were applied in the irrigation solution as needed and water was added on a regular basis. Supplemental lighting was provided with overhead metal halide 1000-Watt lamps as necessary. The plants were employed for testing when they reached the first through fourth true leaf stage.
as §2
Other herbicidal components were applied on an acid equivalent (ae) or active ingredient (ai) basis and included acetyl coA carboxylase (ACCase)-inhibiting herbicides (cyclohexanedione and aryloxyphenoxypropionate chemical classes) cyhalofop-butyl formulated as Clincher® SF (285 gr ai/L EC), diclofop-methyl formulated as Hoelon® 3EC, fenoxaprop-p-ethyl+isoxadifen-ethyl formulated as RiceStar® HT (0.58 lb./gal EC), fenoxaprop-p-ethyl+mefenpyr diethyl formulated as Puma® IEC, metamifop formulated as Metamifop EC, haloxyfop-methyl formulated as Gallant Super®, fluazifop-p-butyl formulated as Fusilade® DX, quizalofop-p-ethyl formulated as Assure® II, profoxydim formulated as Aura® 20EC, clethodim applied as Intensity®, sethoxydim formulated as Poast®, and tralkoxydim formulated as Achieve®.
as §1
For treatments comprised of formulated compounds, measured amounts of compounds were placed individually in 25 mL glass vials and diluted in a volume of 1.25% (v/v) Agri-Dex® crop oil concentrated to obtain 12× stock solutions. […] Application solutions were prepared by adding an appropriate amount of each stock solution (e.g., 1 mL) and diluted to the appropriate final concentrations with the addition of 10 mL of an aqueous mixture of 1.25% (v/v) crop oil concentrate so that the final spray solutions contained 1.25+/−0.05% (v/v) crop oil concentrate.
All stock solutions and applications solutions were visually inspected for compound compatibility prior to application. Spray solutions were applied to the plant material with an overhead Mandel track sprayer equipped with a 8002E nozzles calibrated to deliver 187 L/ha over an application area of 0.503 m^2 at a spray height of 18 to 20 inches (46 to 50 cm) above average plant canopy height. Control plants were sprayed in the same manner with the solvent blank.
as §3, with “3” for “2”, “kill. […]” for “kill.”

CYPES = experiment: Example V (second) postemergence foliar-applied ternary mixtures, greenhouse, direct seeded rice weeds; assay type: in vivo, Cyperus esculentus L.
Method: as §3, with “3” for “2”
as §4
The following equation was used to calculate the expected activity of mixtures containing three active ingredients, A, B, and C: Expected=A+B+C−((A×B+A×C+B×C)/100)+(A×B×C/10000)

Question: Which “Visual Weed Control (%) - 14 DAA LOLMU Obs” value (LOLMU; Compound A Acid 3.75 gae/ha) does the source give for COc1c(Cl)ccc(-c2nc(C(=O)O)c(Cl)c(N)c2F)c1F [Compound A Acid, 4-amino-3-chloro-6-(4-chloro-2-fluoro-3-methoxyphenyl)-5-fluoropyridine-2-carboxylic acid] here?
Answer: The value was 0%.

Question: What about the “Visual Weed Control (%) - 14 DAA LOLMU Obs” value (LOLMU; Compound A Acid 7.5 gae/ha) of the same molecule?
Answer: The value was 10%.

Question: What about the “Visual Weed Control (%) - 14 DAA LOLMU Obs” value (LOLMU; Compound A Acid 15 gae/ha) of the same molecule?
Answer: The value was 10%.

Question: What about the “Visual Weed Control (%) - 20 DAA ECHCO Obs” value (ECHCO; 4.38 gae/ha) of the same molecule?
Answer: Its value is 40%.

Question: And the “Visual Weed Control (%) - 20 DAA ECHCO Obs” value (ECHCO; 8.75 gae/ha)?
Answer: The value was 60%.

Question: What about the “Visual Weed Control (%) - 20 DAA ECHCO Obs” value (ECHCO; 17.5 gae/ha) of the same molecule?
Answer: Its value is 85%.

Question: Which results are given for COc1c(Cl)ccc(-c2nc(C(=O)OCc3ccccc3)c(Cl)c(N)c2F)c1F [Compound A Benzyl Ester, benzyl ester of 4-amino-3-chloro-5-fluoro-6-(4-chloro-2-fluoro-3-methoxy-phenyl)pyridine-2-carboxylic acid]?
Answer: Visual Weed Control (%) - 14 DAA LOLMU Obs (LOLMU; Compound A Benzyl Ester 3.75 gae/ha): 0%; Visual Weed Control (%) - 14 DAA LOLMU Obs (LOLMU; Compound A Benzyl Ester 7.5 gae/ha): 10%; Visual Weed Control (%) - 14 DAA LOLMU Obs (LOLMU; Compound A Benzyl Ester 15 gae/ha): 10%; Visual Weed Control (%) - 21 DAA CYPES Obs (CYPES; 8 ae/ha): 70%; Visual Weed Control (%) - 21 DAA CYPES Obs (CYPES; 8 gae/ha): 70%; Visual Weed Control (%) - 21 DAA ECHCO Obs (ECHCO; 8 gae/ha): 40%; Visual Weed Control (%) - 21 DAA ECHCO Obs (ECHCO; 16 gae/ha): 70%; Visual Weed Control (%) - 21 DAA ECHCO Obs (ECHCO; 32 gae/ha): 95%

Question: Which “Visual Weed Control (%) - 21 DAA CYPES Obs” value (CYPES; 35 gai/ha) does the source give for CCCCOC(=O)[C@@H](C)Oc1ccc(Oc2ccc(C#N)cc2F)cc1 [Cyhalofop-butyl, butyl(2R)-2-[4-(4-cyano-2-fluorophenoxy)phenoxy]propanoate, reference compound] here?
Answer: Its value is 0%.

Question: With CCC/C(=N\OCC(C)Oc1ccc(Cl)cc1)C1=C(O)CC(C2CCCSC2)CC1=O (stereo not drawn) [Profoxydim, 2-[1-[[2-(4-chlorophenoxy)propoxy]imino]butyl]-3-hydroxy-5-(tetrahydro-2H-thiopyran-3-yl)-2-cyclohexen-1-one, reference compound] as the molecule, how does the “Visual Weed Control (%) - 20 DAA ECHCO Obs” value (ECHCO; 12.5 gai/ha) read?
Answer: The value was 70%.

Question: CCOC(=O)[C@@H](C)Oc1ccc(Oc2cnc3cc(Cl)ccc3n2)cc1 [Quizalofop-p-ethyl, ethyl(2R)-2-[4-[(6-chloro-2-quinoxalinyl)oxy]phenoxy]propanoate, reference compound] was tested. Which “Visual Weed Control (%) - 14 DAA LOLMU Obs” value (LOLMU; Quizalofop-p-ethyl 3.56 gae/ha) did it give?
Answer: The value was 0%.

Question: What about the “Visual Weed Control (%) - 14 DAA LOLMU Obs” value (LOLMU; Quizalofop-p-ethyl 7.125 gae/ha) of the same molecule?
Answer: Its value is 60%.

Reference: patent US9232796B2, “Herbicidal compositions comprising 4-amino-3-chloro-5-fluoro-6-(4-chloro-2-fluoro-3-methoxyphenyl) pyridine-2-carboxylic acid or a derivative thereof and acetyl-CoA carboxylase (ACCase) inhibitors” (DOW AGROSCIENCES LLC, priority 2012, dated 2016)
